Laboratory results from US11414387B2, “Oxoacridinyl acetic acid derivatives and methods of use” (Stingthera, Inc., priority 2017, dated 2022).
pIC50: −log10 of the molar value.

Legend:
hSTING-WT = hSTING-WT (Homo sapiens (Human), UniProt Q86WV6, H232R); assay: Radiometric filtration binding competition assay, hSTING-WT
mSTING = mSTING (Mus musculus, UniProt Q3TBT3); assay: Radiometric filtration binding competition assay, mSTING
Procedure: A radiometric filtration binding competition assay was performed to quantify the binding affinity of compounds of the present application for the human or mouse STING protein, or associated HAQ human isoform. […] The resulting dose response was fit by non-linear regression to determine an IC50 value, from which a Ki value for each compound was extrapolated.
The resulting complexes were then filtered, dried, and scintillation fluid was added and the remaining radio signal was measured to determine the degree of compound ligand inhibition. This assay format was optimized for both the WT and HAQ isoforms of the human protein and the mouse orthologue protein.
Probe Concentration: Minimum concentration that achieved max assay window • g. Assay Format: Scintillation Proximity Bead or Filtration Binding Plate • h. […] Assay incubation times for successive incubation steps
WT-hSWAT: WT_FBA_HIS-SUMO-hSWAT IC50 (μM) (“WT”=Wild-type); HAQ-hSWAT: HAQ_FBA_HIS-SUMO-hSWAT IC50 (μM) (“HAQ”=human HAQ allele of STING protein); and WT-mSWAT: MOUSE_FBA_HIS-SUMO-mnSWAT IC50 (μM) which is the mouse isoform of STING protein.

hSTING-R232 = hSTING-R232 (Homo sapiens (Human), UniProt Q86WV6, H232R); assay: STING differential scanning fluorimetry (DSF) assay, WT human STING; settings: WT (R232) human STING aa140-379, net shift in melting temperature
mSTING-R232 = mSTING-R232 (Mus musculus, UniProt Q3TBT3); assay: STING differential scanning fluorimetry (DSF) assay, mouse STING; settings: net shift in melting temperature
STING protein = STING protein (Homo sapiens (Human), UniProt Q86WV6, H232R); assay: Cell based reporter assay of IRF activation (IRF-luciferase), THP1-dual-KI R232; settings: read-out: THP1-dual-KI R232_IRF(Luciferase)_Activity Maximum measured (%)
Chain of STING protein (Q86WV6 whole entry H232R): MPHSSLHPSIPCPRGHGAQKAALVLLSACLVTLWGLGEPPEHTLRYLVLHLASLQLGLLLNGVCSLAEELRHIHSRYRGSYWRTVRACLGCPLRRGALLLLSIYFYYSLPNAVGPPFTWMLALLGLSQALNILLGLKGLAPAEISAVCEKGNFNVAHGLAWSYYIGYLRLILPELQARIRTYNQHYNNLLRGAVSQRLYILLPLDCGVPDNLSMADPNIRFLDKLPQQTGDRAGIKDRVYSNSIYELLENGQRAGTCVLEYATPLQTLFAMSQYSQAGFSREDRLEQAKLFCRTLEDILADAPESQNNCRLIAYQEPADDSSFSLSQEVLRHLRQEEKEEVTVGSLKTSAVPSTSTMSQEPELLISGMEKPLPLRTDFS

Chain of hSTING-R232 (Q86WV6 140-379 H232R): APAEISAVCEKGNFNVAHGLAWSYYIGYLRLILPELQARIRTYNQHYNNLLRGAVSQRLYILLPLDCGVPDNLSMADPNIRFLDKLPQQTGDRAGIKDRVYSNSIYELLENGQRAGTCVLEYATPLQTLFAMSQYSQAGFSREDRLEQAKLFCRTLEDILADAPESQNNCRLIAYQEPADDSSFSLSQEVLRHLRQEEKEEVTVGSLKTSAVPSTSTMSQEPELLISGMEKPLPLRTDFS
Chain of hSTING-WT (Q86WV6 140-379 H232R): as above

| Structure (SMILES) | pIC50 (hSTING-WT) | pIC50 (mSTING) | WT_DSF_hSWAT Tm Shift (° C.) (hSTING-R232) | MOUSE DSF_6xHIS-SUMO Tm Shift (° C.) (mSTING-R232) | Emax (STING protein) |
| --- | --- | --- | --- | --- | --- |
| Cc1cccc2c(=O)c3cccc(C)c3n(CC(=O)O)c12 [Compound 132] | 3.52 to 4.00 | – | A (“A” < 0° C.) | A (“A” < 0° C.) | < 5% |
| CC1(C)CCCC(Nc2ccc3c(=O)c4ccc(Cl)c(Cl)c4n(CC(=O)O)c3c2)C1 (stereo not drawn) [Compound 139] | 4.00 to 4.70 | – | C (“C” = 2-7° C,) | D (“D” > 15° C.) | < 5% |
| CC1CCC(Nc2ccc3c(=O)c4ccc(Cl)c(Cl)c4n(CC(=O)O)c3c2)CC1 (stereo not drawn) [Compound 140] | 4.00 to 4.70 | – | C (“C” = 2-7° C,) | D (“D” > 15° C.) | 5 to 25% |
| O=C(O)Cn1c2cc(NC3CCOCC3)ccc2c(=O)c2ccc(Cl)c(Cl)c21 [Compound 142] | 3.52 to 4.00 | – | C (“C” = 2-7° C,) | C (“C” = 5-15° C.) | < 5% |
| O=C(O)Cn1c2cc(N3CCc4ccccc43)ccc2c(=O)c2ccc(Cl)c(Cl)c21 [Compound 144] | 3.52 to 4.00 | – | C (“C” = 2-7° C,) | C (“C” = 5-15° C.) | < 5% |
| O=C(O)Cn1c2cc(NCCN3CCc4ccccc43)ccc2c(=O)c2ccc(Cl)c(Cl)c21 [Compound 150] | 3.52 to 4.00 | – | C (“C” = 2-7° C,) | C (“C” = 5-15° C.) | 5 to 25% |
| O=C(O)Cn1c2cc(-c3ccc(F)cc3)ccc2c(=O)c2ccc(Cl)c(Cl)c21 [Compound 153] | 4.00 to 4.70 | – | C (“C” = 2-7° C,) | D (“D” > 15° C.) | 5 to 25% |
| Cc1ccc(-c2ccc3c(=O)c4ccc(Cl)c(Cl)c4n(CC(=O)O)c3c2)cc1 [Compound 154] | 3.52 to 4.00 | – | C (“C” = 2-7° C,) | D (“D” > 15° C.) | 5 to 25% |
| O=C(O)Cn1c2cc(-c3cccc(Cl)c3)ccc2c(=O)c2ccc(Cl)c(Cl)c21 [Compound 155] | 3.52 to 4.00 | – | C (“C” = 2-7° C,) | D (“D” > 15° C.) | < 5% |
| CC1(C)CCC=C(c2ccc3c(=O)c4ccc(Cl)c(Cl)c4n(CC(=O)O)c3c2)C1 [Compound 157] | 4.00 to 4.70 | – | C (“C” = 2-7° C,) | D (“D” > 15° C.) | < 5% |
| CC1(C)CCCC(c2ccc3c(=O)c4ccc(Cl)c(Cl)c4n(CC(=O)O)c3c2)C1 (stereo not drawn) [Compound 158] | > 4.70 | – | C (“C” = 2-7° C,) | D (“D” > 15° C.) | < 5% |
| O=C(O)Cn1c2cc(-c3cccc(Cl)n3)ccc2c(=O)c2ccc(Cl)c(Cl)c21 [Compound 162] | 3.52 to 4.00 | – | A (“A” < 0° C.) | C (“C” = 5-15° C.) | < 5% |
| Cc1ccc(-c2ccc3c(=O)c4ccc(Cl)c(Cl)c4n(CC(=O)O)c3c2)cc1F [Compound 163] | 4.00 to 4.70 | – | C (“C” = 2-7° C,) | D (“D” > 15° C.) | 5 to 25% |
| Cc1ccc2c(=O)c3ccc(Cl)cc3n(C(C)C(=O)O)c2c1 (stereo not drawn) [Compound 171] | < 3.52 | – | A (“A” < 0° C.) | B (“B” = 0-5° C.) | < 5% |
| O=C(O)Cn1c2ccccc2c(=O)c2ccc(F)c(Br)c21 [Compound 173] | < 3.52 | – | B (“B” = 0-2° C.) | C (“C” = 5-15° C.) | – |
| Cc1ccc2c(=O)c3ccc(Cl)cc3n([C@H](C)C(=O)O)c2c1 [Compound 179] | 3.52 to 4.00 | – | A (“A” < 0° C.) | B (“B” = 0-5° C.) | – |
| Cc1ccc2c(=O)c3ccc(Cl)cc3n([C@@H](C)C(=O)O)c2c1 [Compound 180] | 4.00 to 4.70 | – | A (“A” < 0° C.) | B (“B” = 0-5° C.) | – |
| O=C(O)Cn1c2cc(-c3ccncc3)ccc2c(=O)c2ccc(Cl)c(Cl)c21 [Compound 189] | 3.52 to 4.00 | – | C (“C” = 2-7° C,) | C (“C” = 5-15° C.) | 5 to 25% |
| O=C(O)Cn1c2cc(Nc3ccccc3)ccc2c(=O)c2ccc(Cl)c(Br)c21 [Compound 206] | 4.00 to 4.70 | > 4.70 | D (“D” > 7° C.) | D (“D” > 15° C.) | – |

Continued, values first:

| pIC50 (hSTING-WT) | pIC50 (mSTING) | WT_DSF_hSWAT Tm Shift (° C.) (hSTING-R232) | MOUSE DSF_6xHIS-SUMO Tm Shift (° C.) (mSTING-R232) | Emax (STING protein) | Structure (SMILES) |
| --- | --- | --- | --- | --- | --- |
| < 3.52 | 3.52 to 4.00 | C (“C” = 2-7° C,) | C (“C” = 5-15° C.) | 5 to 25% | O=C(O)Cn1c2ccccc2c(=O)c2ccc(Br)c(Br)c21 [Compound 108] |
| 4.00 to 4.70 | – | B (“B” = 0-2° C.) | B (“B” = 0-5° C.) | < 5% | CC(C)c1ccc(-c2ccc3c(c2)c(=O)c2ccc(Cl)c(Br)c2n3CC(=O)O)cc1 [Compound 109] |
| 3.52 to 4.00 | – | A (“A” < 0° C.) | B (“B” = 0-5° C.) | < 5% | Cc1cc2c(cc1F)c(=O)c1ccc(Cl)c(Cl)c1n2CC(=O)O [Compound 135] |
| 4.00 to 4.70 | – | C (“C” = 2-7° C,) | C (“C” = 5-15° C.) | > 50% | CC(C)(C)CNc1ccc2c(=O)c3ccc(Cl)c(Cl)c3n(CC(=O)O)c2c1 [Compound 138] |
| 3.52 to 4.00 | – | A (“A” < 0° C.) | A (“A” < 0° C.) | < 5% | CC(C)c1ccc2c(=O)c3ccc(C#N)c(Cl)c3n(CC(=O)O)c2c1 [Compound 145] |
| 4.00 to 4.70 | – | C (“C” = 2-7° C,) | C (“C” = 5-15° C.) | 25 to 50% | CC(C)(C)CNc1ccc2c(=O)c3ccc(Cl)c(Br)c3n(CC(=O)O)c2c1 [Compound 148] |
| < 3.52 | – | B (“B” = 0-2° C.) | C (“C” = 5-15° C.) | – | O=C(O)Cn1c2cc(C(F)(F)F)ccc2c(=O)c2ccc(Cl)c(Cl)c21 [Compound 165] |
| 4.00 to 4.70 | – | B (“B” = 0-2° C.) | C (“C” = 5-15° C.) | 25 to 50% | CC(C)c1ccc2c(=O)c3ccc(Br)c(Cl)c3n(CC(=O)O)c2c1 [Compound 170] |
| < 3.52 | – | B (“B” = 0-2° C.) | B (“B” = 0-5° C.) | < 5% | CC(C)c1ccc2c(=O)c3ccc(Cl)c(Cl)c3n(C)c2c1 [Compound 174] |
| 4.00 to 4.70 | – | D (“D” > 7° C.) | D (“D” > 15° C.) | > 50% | O=C(O)Cn1c2cc(NC3CCC3)ccc2c(=O)c2ccc(Cl)c(Br)c21 [Compound 175] |
| < 3.52 | < 3.52 | C (“C” = 2-7° C,) | C (“C” = 5-15° C.) | – | COc1c(Cl)ccc2c(=O)c3ccccc3n(CC(=O)O)c12 [Compound 178] |
